Converted amounts (≈) assume the structure as drawn. Like-named read-outs stand apart in the source and are kept apart here.
Legend:
P. falciparum K1 strain = assay: In vitro assay for Plasmodium falciparum ([3H]-hypoxanthine incorporation); assay type: cell-based
Procedure: Activity against the erythrocytic stages of P. falciparum was determined using an in vitro modified [^3H]-hypoxanthine incorporation assay, using the chloroquine- and pyrimethamine-resistant K1 strain [68]. Compounds were dissolved in DMSO at 10 mg/mL and further diluted in medium before added to parasite cultures incubated in RPMI 1640 medium without hypoxanthine, supplemented with HEPES (5.94 g/l), NaHCO3 (2.1 g/L), neomycin (100 U/mL), AlbumaxR (5 g/L), and washed human red cells A+ at 2.5% haematocrit (0.3% parasitaemia). Serial drug dilutions of seven 3-fold dilution steps covering a range from 90 to 0.123 μg/mL were prepared. The 96 well plates were incubated in a humidified atmosphere at 37 °C; 4% CO2, 3% O2, 93% N2. After 48 h 50 μL of ^3H-hypoxanthine (=0.5 μCi) was added to each well of the plate. The plates were incubated for a further 24 h under the same conditions. The plates were then harvested with a Betaplate™ cell harvester (Wallac, Zurich, Switzerland), and the red blood cells transferred onto a glass fiber filter then washed with distilled water. The dried filters were inserted into a plastic foil with 10 mL of scintillation fluid, and counted in a Betaplate™ liquid scintillation counter (Wallac, Zurich, Switzerland). […] IC50 values were calculated from the sigmoidal inhibition curves using Microsoft Excel. Chloroquine was used as positive control drug.

[1] = In vitro assay for cytotoxicity on mammalian cells (resazurin); assay type: cell-based, rat
Procedure: Assays were performed in 96 well microtiter plates (4 × 10^4 L6 cells/well), each well containing 100 μL of RPMI 1640 medium supplemented with 1% L-glutamine (200 mM) and 10% FBS. L6 cells are a primary cell line derived from rat skeletal myoblasts. Serial drug dilutions of seven 3-fold dilution steps covering a range from 90 to 0.123 μg/mL were prepared. After 72 h of incubation, the plates were inspected under an inverted microscope to assure growth of the controls and sterile conditions. Resazurin solution (10 μL) (12.5 mg resazurin in 100 mL double-distilled water) was then added to each well and the plates incubated for another 2 h. The plates were then read with a Spectramax Gemini XS microplate fluorometer (Molecular Devices Cooperation, Sunnyvale, CA, USA) using an excitation wavelength of 536 nm and an emission wavelength of 588 nm. Data were analyzed using the microplate reader software Softmax Pro (Molecular Devices Cooperation, Sunnyvale, CA, USA). From the sigmoidal inhibition curves, the IC50 values were calculated. Podophyllotoxin was the positive control.

[2] = tested on: chloroquine-resistant P. falciparum strain; settings: reported to be inactive; cited from earlier work
L. infantum = tested on: L. infantum; design: method as in doi:10.1016/j.indcrop.2015.09.049; settings: cited from earlier work
P. falciparum = tested on: P. falciparum; design: method as in PMID 22441836; settings: cited from earlier work
T. cruzi epimastigotes = tested on: T. cruzi epimastigotes; design: method as in PMID 17024354; settings: 24 h incubation; cited from earlier work
T. cruzi trypomastigotes = tested on: T. cruzi trypomastigotes; design: method as in PMID 17024354; settings: 24 h incubation; cited from earlier work
[3] = tested on: intracellular amastigotes of T.-cruzi-infected Vero cells; design: method as in PMID 20428679; settings: cited from earlier work
Trypanosoma cruzi = tested on: Trypanosoma cruzi; design: method as in earlier work; settings: 200 mg/kg/day, intragastric route, 22nd day post-infection; cited from earlier work

| SMILES | IC50 (P. falciparum K1 strain; K1, read-out: IC50 Plasmodium falciparum) [µg/mL] | IC50 at 72 h ([1]; rat) [µg/mL] | IC50 [2] [µM] | IC50 L. infantum (L. infantum) [µg/mL] | IC50 (P. falciparum K1 strain; K1 strain (chloroquine- and pyrimethamine-resistant), erythrocytic stages, means of two determinations ± deviation, read-out: IC50 Plasmodium falciparum) [µg/mL] | IC50 at 72 h ([1]; L6 cells (rat skeletal myoblasts), rat skeletal myoblasts, 72 h, means of two determinations ± deviation, read-out: IC50 Cytotoxicity L6 cells) [µg/mL] | IC50 in vitro antimalarial activity (P. falciparum) [µg/mL] | IC50 T. cruzi epimastigotes (T. cruzi epimastigotes) [µg/mL] | IC50 T. cruzi trypomastigotes (T. cruzi trypomastigotes) [µg/mL] | selective index ([3]; T.-cruzi-infected Vero cells) | IC50 intracellular amastigotes of T.-cruzi-infected Vero cells [3] [µg/mL] | parasitemia in T. cruzi infected albino mice (in words) (Trypanosoma cruzi) |
| --- | --- | --- | --- | --- | --- | --- | --- | --- | --- | --- | --- | --- |
| Cc1ccc(C(C)C)cc1O [Carvacrol] | 6.4 ± 0.9 (≈ 42.6 µM) | 48.8 ± 1.1 (≈ 325 µM) | > 1000 | 7.35 (≈ 48.9 µM) | – | – | – | – | – | – | – | – |
| Cc1ccc(C(C)C)c(O)c1 [Thymol] | – | – | – | – | 5.7 ± 0.03 (≈ 37.9 µM) | 51.8 ± 6.2 (≈ 345 µM) | 4.5 (≈ 30 µM) | 62 (≈ 413 µM) | 53 (≈ 353 µM) | greater than 10 | 3.2 | significant reduction in parasitemia |

Reference: article PMC6930659, “Antiprotozoal Activity of Turkish Origanum onites Essential Oil and Its Components” (Molecules, 2019)
